Like-named read-outs stand apart in the source and are kept apart here.
How the values were obtained:
recombinant PI3 kinase γ = recombinant PI3 kinase γ (Homo sapiens (Human), UniProt P48736); assay: Enzyme Inhibition Assay (HTRF PI3K enzyme assay, TR-FRET); type: biochemical
Procedure, shortened: (§1)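 Recombinant PI3Kα, δ or γ incubated with PIP2 substrate and compound for 2 hr at RT. Stop solution with biotin-PIP3 and GST-GRP1 PH domain/Eu-anti-GST/SA-APC detection mix added, then 15-18 hr at RT. PIP3 formed reduces the TR-FRET signal.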

recombinant PI3 kinase δ = recombinant PI3 kinase δ (Homo sapiens (Human), UniProt O00329); assay: as above; type: biochemical
Chain of recombinant PI3 kinase δ (O00329 whole entry): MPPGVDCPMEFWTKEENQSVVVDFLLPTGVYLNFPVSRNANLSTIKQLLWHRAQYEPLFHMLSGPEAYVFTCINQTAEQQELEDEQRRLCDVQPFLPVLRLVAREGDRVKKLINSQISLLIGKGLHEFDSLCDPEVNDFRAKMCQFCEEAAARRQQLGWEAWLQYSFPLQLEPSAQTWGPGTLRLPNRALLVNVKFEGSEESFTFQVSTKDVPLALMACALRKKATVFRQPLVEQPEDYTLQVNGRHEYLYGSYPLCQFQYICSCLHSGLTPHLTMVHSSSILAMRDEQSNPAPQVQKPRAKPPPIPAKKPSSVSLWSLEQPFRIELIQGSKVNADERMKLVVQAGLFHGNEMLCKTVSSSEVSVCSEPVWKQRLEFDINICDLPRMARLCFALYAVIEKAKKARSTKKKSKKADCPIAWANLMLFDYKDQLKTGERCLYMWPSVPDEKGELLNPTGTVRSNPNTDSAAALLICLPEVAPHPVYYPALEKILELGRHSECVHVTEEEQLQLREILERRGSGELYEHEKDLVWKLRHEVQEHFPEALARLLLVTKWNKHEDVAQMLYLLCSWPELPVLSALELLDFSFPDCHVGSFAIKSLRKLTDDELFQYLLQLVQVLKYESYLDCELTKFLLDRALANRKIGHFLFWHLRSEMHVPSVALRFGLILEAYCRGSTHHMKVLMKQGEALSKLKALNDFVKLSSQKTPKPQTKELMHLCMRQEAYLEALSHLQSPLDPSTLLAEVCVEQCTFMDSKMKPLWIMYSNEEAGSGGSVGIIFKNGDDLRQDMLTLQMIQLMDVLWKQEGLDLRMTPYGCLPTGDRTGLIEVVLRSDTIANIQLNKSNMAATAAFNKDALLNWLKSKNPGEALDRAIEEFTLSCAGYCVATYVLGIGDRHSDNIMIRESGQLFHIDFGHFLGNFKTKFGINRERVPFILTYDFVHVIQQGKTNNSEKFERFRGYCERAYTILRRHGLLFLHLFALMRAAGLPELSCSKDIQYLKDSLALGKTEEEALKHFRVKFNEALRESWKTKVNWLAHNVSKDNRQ
Chain of recombinant PI3 kinase δ (P27986 whole entry partner): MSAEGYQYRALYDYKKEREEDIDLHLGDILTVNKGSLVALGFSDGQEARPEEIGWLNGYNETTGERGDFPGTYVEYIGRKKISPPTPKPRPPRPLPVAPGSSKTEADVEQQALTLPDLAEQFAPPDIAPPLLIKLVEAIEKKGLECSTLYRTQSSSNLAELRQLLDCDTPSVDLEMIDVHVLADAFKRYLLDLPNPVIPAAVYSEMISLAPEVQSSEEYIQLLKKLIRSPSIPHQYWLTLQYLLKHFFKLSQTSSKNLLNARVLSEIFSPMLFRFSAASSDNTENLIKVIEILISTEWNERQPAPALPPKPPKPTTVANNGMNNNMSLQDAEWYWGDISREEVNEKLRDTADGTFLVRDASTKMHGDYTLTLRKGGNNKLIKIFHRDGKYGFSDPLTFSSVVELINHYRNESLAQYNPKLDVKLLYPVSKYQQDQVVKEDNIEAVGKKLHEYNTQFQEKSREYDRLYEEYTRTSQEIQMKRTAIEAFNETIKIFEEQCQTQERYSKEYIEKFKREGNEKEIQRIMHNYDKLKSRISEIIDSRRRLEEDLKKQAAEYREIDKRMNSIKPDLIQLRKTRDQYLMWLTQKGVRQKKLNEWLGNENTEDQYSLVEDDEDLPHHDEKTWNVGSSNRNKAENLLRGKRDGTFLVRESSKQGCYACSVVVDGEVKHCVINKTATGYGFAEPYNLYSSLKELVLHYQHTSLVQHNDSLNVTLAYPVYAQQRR
Procedure, shortened: as §1

recombinant PI3 kinase α = recombinant PI3 kinase α (Homo sapiens (Human), UniProt P42336); assay: as above; type: biochemical
Chain of recombinant PI3 kinase α (P42336 whole entry): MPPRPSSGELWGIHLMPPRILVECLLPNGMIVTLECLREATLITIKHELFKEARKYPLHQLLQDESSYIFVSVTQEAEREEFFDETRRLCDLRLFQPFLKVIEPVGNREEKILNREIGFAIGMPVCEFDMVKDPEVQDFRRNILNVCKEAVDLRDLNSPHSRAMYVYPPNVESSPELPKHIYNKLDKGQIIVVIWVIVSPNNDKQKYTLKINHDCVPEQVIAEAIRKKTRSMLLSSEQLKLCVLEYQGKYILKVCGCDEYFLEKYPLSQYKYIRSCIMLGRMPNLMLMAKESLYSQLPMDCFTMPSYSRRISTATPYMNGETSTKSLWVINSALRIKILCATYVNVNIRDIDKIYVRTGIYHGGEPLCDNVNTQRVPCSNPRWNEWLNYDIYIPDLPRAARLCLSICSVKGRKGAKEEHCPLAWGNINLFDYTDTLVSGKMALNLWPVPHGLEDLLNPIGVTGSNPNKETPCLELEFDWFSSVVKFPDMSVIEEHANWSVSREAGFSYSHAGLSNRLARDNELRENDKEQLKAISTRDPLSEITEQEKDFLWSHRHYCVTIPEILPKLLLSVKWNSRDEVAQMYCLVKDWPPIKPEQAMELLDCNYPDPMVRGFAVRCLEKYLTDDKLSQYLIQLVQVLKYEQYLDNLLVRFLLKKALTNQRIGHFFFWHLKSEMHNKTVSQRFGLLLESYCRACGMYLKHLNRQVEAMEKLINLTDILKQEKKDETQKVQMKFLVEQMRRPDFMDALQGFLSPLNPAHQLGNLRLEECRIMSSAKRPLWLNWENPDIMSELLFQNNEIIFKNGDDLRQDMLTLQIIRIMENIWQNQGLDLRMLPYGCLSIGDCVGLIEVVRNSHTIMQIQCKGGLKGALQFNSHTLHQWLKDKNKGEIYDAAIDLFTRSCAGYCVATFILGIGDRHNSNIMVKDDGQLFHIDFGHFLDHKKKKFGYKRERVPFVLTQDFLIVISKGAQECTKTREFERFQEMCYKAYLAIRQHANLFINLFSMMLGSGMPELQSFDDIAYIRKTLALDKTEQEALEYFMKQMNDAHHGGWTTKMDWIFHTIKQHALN
Chain of recombinant PI3 kinase α (P27986 whole entry partner): as the sequence (P27986 whole entry partner) above
Procedure, shortened: as §1

[1] = test system: H2O2 induced pAkt in D-U937 cells; assay: PI3Kδ Cell Based Assay (H2O2 induced pAkt); conditions: Homo sapiens, dU937
Procedure, shortened: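 U937 cells differentiated to macrophage-type cells with PMA (100 ng/mL, 48 to 72 hr), then stimulated with H2O2. pAkt and total Akt detected by antibody-based immunoassay. Ratio of pAkt to total Akt signal used; IC50 from concentration-response curves of serially diluted compounds.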

[2] = test system: PMA-differentiated U937 cells; assay: MTT Assay (cell viability); type: cell-based, Human; conditions: percentage loss of cell viability; for Cell Viability MTT Assay in D-U937 cells at 4 hr: 4 hr in 5% FCS; for Cell Viability MTT Assay in D-U937 cells at 24 hr: 24 hr in 10% FCS
Procedure, shortened: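 Differentiated U937 cells treated with compound for 4 hr (5% FCS) or 24 hr (10% FCS), then given MTT for 1 hr; formazan dissolved in DMSO and absorbance read at 550 nm. Viability loss expressed as % versus 0.5% DMSO vehicle.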

[3] = activity range, read-out: PI3 Kinase Inhibition IC50 values at stated Isozyme γ
[4] = activity range, read-out: PI3 Kinase Inhibition IC50 values at stated Isozyme δ
[5] = activity range, read-out: PI3 Kinase Inhibition IC50 values at stated Isozyme α
[6] = activity range, D-U937 cells, read-out: Cellular Activity IC50 values (H2O2 induced pAkt D-U937 Cells)

Chain of recombinant PI3 kinase γ (P48736 whole entry, the tested form may be a part): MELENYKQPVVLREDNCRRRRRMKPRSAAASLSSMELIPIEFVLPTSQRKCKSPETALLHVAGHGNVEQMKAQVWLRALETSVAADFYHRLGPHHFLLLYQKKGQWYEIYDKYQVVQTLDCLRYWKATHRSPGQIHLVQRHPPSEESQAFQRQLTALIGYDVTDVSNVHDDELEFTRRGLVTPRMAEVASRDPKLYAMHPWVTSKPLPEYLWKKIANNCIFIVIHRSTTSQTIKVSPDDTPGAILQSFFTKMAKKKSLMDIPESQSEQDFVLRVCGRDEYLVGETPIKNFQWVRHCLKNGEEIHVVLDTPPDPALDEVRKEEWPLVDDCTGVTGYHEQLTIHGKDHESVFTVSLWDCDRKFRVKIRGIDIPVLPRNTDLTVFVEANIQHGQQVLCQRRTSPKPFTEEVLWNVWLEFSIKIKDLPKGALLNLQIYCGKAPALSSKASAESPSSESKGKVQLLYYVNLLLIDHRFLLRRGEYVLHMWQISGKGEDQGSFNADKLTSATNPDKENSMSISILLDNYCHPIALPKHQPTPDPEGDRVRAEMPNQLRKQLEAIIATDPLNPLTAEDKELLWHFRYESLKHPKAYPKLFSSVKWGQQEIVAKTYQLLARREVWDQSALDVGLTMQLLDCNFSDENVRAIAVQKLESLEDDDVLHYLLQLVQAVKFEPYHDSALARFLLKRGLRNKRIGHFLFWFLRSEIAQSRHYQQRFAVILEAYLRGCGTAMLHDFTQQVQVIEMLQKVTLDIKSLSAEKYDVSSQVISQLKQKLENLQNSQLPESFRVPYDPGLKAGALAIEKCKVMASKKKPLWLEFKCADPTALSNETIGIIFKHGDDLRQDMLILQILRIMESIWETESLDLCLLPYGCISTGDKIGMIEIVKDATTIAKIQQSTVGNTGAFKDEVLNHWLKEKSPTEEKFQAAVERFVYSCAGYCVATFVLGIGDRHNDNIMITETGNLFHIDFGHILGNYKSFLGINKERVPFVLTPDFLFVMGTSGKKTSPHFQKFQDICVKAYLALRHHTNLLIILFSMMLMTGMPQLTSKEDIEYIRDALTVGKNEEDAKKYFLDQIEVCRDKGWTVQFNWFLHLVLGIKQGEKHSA

Row | IC50 (recombinant PI3 kinase γ; [3]) | IC50 (recombinant PI3 kinase δ; [4]) | IC50 (recombinant PI3 kinase α; [5]) | IC50 [1, 6] | IC50 (recombinant PI3 kinase γ; read-out: PI3 Kinase Inhibition IC50 values at stated Isozyme (nM) γ) | IC50 (recombinant PI3 kinase δ; read-out: PI3 Kinase Inhibition IC50 values at stated Isozyme (nM) δ) | IC50 (recombinant PI3 kinase α; read-out: PI3 Kinase Inhibition IC50 values at stated Isozyme (nM) α) | IC50 ([1]; read-out: Cellular Activity IC50 values (H2O2 induced pAkt (nM) D-U937 Cells)) | SMILES | Cell Viability MTT Assay in D-U937 cells at 4 hr [2] | Cell Viability MTT Assay in D-U937 cells at 24 hr [2]
1 | < 50 nM | < 50 nM | 50 to 1000 nM | < 10 nM | – | – | – | – | COc1cc(-c2nn(Cc3nc4cccc(C#CCCCC(=O)N5CCOCC5)c4c(=O)n3Cc3ccccc3Cl)c3ncnc(N)c23)ccc1O [Example 95, 2-((4-Amino-3-(4-hydroxy-3-methoxyphenyl)-1H-pyrazolo[3,4-d]pyrimidin-1-yl)methyl)-3-(2-chlorobenzyl)-5-(6-morpholino-6-oxohex-1-ynyl)quinazolin-4(3H)-one] | − (− <30%) | − (− <30%)
2 | 50 to 1000 nM | < 50 nM | 50 to 1000 nM | < 10 nM | – | – | – | – | Nc1ncnc2c1c(-c1ccc(O)cc1)nn2Cc1nc2cccc(C#CCCCC(=O)Nc3ccncc3)c2c(=O)n1Cc1ccccc1Cl [Example 79, 6-(2-((4-Amino-3-(4-hydroxyphenyl)-1H-pyrazolo[3,4-d]pyrimidin-1-yl)methyl)-3-(2-chlorobenzyl)-4-oxo-3,4-dihydroquinazolin-5-yl)-N-(pyridin-4-yl)hex-5-ynamide] | − (− <30%) | − (− <30%)
3 | < 50 nM | < 50 nM | 50 to 1000 nM | < 10 nM | – | – | – | – | CN1CCN(C(=O)CCCC#Cc2cccc3nc(Cn4nc(-c5cccc(O)c5)c5c(N)ncnc54)n(Cc4ccccc4Cl)c(=O)c23)CC1 [Example 69, 2-((4-Amino-3-(3-hydroxyphenyl)-1H-pyrazolo[3,4-d]pyrimidin-1-yl)methyl)-3-(2-chlorobenzyl)-5-(6-(4-methylpiperazin-1-yl)-6-oxohex-1-yn-1-yl)quinazolin-4(3H)-one] | + (+ >30%) | − (− <30%)
4 | < 50 nM | < 50 nM | 50 to 1000 nM | < 10 nM | – | – | – | – | Nc1ncnc2c1c(-c1ccc(O)cc1)nn2Cc1nc2cccc(C#CCCCC(=O)N3CCCCC3)c2c(=O)n1Cc1ccccc1Cl [Example 58, 2-((4-Amino-3-(4-hydroxyphenyl)-1H-pyrazolo[3,4-d]pyrimidin-1-yl)methyl)-3-(2-chlorobenzyl)-5-(6-oxo 6-(piperidin-1-yl)hex-1-yn-1-yl)quinazolin-4(3H)-one] | − (− <30%) | − (− <30%)
5 | < 50 nM | < 50 nM | 50 to 1000 nM | < 10 nM | – | – | – | – | CCN(CC)C(=O)CCCC#Cc1cccc2nc(Cn3nc(-c4ccc(O)cc4)c4c(N)ncnc43)n(Cc3ccccc3Cl)c(=O)c12 [Example 59, 6-(2-((4-Amino-3-(4-hydroxyphenyl)-1H-pyrazolo[3,4-d]pyrimidin-1-yl)methyl)-3-(2-chlorobenzyl)-4-oxo-3,4-dihydroquinazolin-5-yl)-N,N-diethylhex-5-ynamide] | − (− <30%) | − (− <30%)
6 | < 50 nM | < 50 nM | < 50 nM | < 10 nM | – | – | – | – | COCCNC(=O)CCCC#Cc1cccc2nc(Cn3nc(-c4cccc(O)c4)c4c(N)ncnc43)n(Cc3ccccc3Cl)c(=O)c12 [Example 54, 6-(2-((4-Amino-3-(3-hydroxyphenyl)-1H-pyrazolo[3,4-d]pyrimidin-1-yl)methyl)-3-(2-chlorobenzyl)-4-oxo-3,4-dihydroquinazolin-5-yl)-N-(2-methoxyethyl)hex-5-ynamide] | − (− <30%) | − (− <30%)
7 | < 50 nM | < 50 nM | 50 to 1000 nM | < 10 nM | – | – | – | – | COc1cc(Cn2c(Cn3nc(-c4ccc(O)cc4)c4c(N)ncnc43)nc3cccc(C#CCCCC(=O)N4CCOCC4)c3c2=O)cc(C(F)(F)F)c1 [Example 62, 2-((4-Amino-3-(4-hydroxyphenyl)-1H-pyrazolo[3,4-d]pyrimidin-1-yl)methyl)-3-(3-methoxy-5-(trifluoromethyl)benzyl)-5-(6-morpholino-6-oxohex-1-yn-1-yl)quinazolin-4(3H)-one] | − (− <30%) | − (− <30%)
8 | < 50 nM | < 50 nM | 50 to 1000 nM | < 10 nM | – | – | – | – | COC(=O)c1cccc(Cn2c(Cn3nc(-c4cccc(O)c4)c4c(N)ncnc43)nc3cccc(C#CCCCC(=O)N4CCOCC4)c3c2=O)c1 [Example 65, Methyl 3-((2-((4-amino-3-(3-hyroxyphenyl)-1H-pyrazolo[3,4-d]pyrimidin-1-yl)methyl)-5-(6-morpholino-6-oxohex-1-yn-1-yl)-4-oxoquinazolin-3(4H)-yl)methyl)benzoate] | − (− <30%) | − (− <30%)

Further lines, the compound ahead of its results:

Row | SMILES | IC50 (recombinant PI3 kinase γ; [3]) | IC50 (recombinant PI3 kinase δ; [4]) | IC50 (recombinant PI3 kinase α; [5]) | IC50 [1, 6] | IC50 (recombinant PI3 kinase γ; read-out: PI3 Kinase Inhibition IC50 values at stated Isozyme (nM) γ) | IC50 (recombinant PI3 kinase δ; read-out: PI3 Kinase Inhibition IC50 values at stated Isozyme (nM) δ) | IC50 (recombinant PI3 kinase α; read-out: PI3 Kinase Inhibition IC50 values at stated Isozyme (nM) α) | IC50 ([1]; read-out: Cellular Activity IC50 values (H2O2 induced pAkt (nM) D-U937 Cells)) | Cell Viability MTT Assay in D-U937 cells at 4 hr [2] | Cell Viability MTT Assay in D-U937 cells at 24 hr [2]
9 | Nc1ncnc2c1c(-c1ccc(O)cc1)nn2Cc1nc2cccc(C#CCCCC(=O)N3CCOCC3)c2c(=O)n1Cc1ccccc1F [Example 53, 2-((4-Amino-3-(4-hydroxyphenyl)-1H-pyrazolo[3,4-d]pyrimidin-1-yl)methyl)-3-(2-fluorobenzyl)-5-(6-morpholino-6-oxohex-1-yn-1-yl)quinazolin-4(3H)-one] | < 50 nM | < 50 nM | < 50 nM | < 10 nM | – | – | – | – | − (− <30%) | − (− <30%)
10 | C#Cc1cccc2nc(Cn3nc(-c4ccc(O)cc4)c4c(N)ncnc43)n(Cc3ccc(C#N)cc3)c(=O)c12 [Example 47, 4-((2-((4-Amino-3-(4-hydroxyphenyl)-1H-pyrazolo[3,4-d]pyrimidin-1-yl)methyl)-5-ethynyl-4-oxoquinazolin-3(4H)-yl)methyl)benzonitrile] | 50 to 1000 nM | < 50 nM | 50 to 1000 nM | < 10 nM | – | – | – | – | − (− <30%) | − (− <30%)
11 | COCC#Cc1cccc2nc(Cn3nc(-c4cccc(O)c4)c4c(N)ncnc43)n(Cc3cccc(C(F)(F)F)c3)c(=O)c12 [Example 37, 2-((4-Amino-3-(3-hydroxyphenyl)-1H-pyrazolo[3,4-d]pyrimidin-1-yl)methyl)-5-(3-methoxyprop-1-ynyl)-3-(3-(trifluoromethyl)benzyl)quinazolin-4(3H)-one] | > 1000 nM | < 50 nM | 50 to 1000 nM | < 10 nM | 1610 nM | 12 nM | 474 nM | 0.33 nM | − (− <30%) | − (− <30%)
12 | C#Cc1cccc2nc(Cn3nc(-c4ccc(O)cc4)c4c(N)ncnc43)n(Cc3ccc(C(F)(F)F)cc3)c(=O)c12 [Example 29, 2-((4-Amino-3-(4-hydroxyphenyl)-1H-pyrazolo[3,4-d]pyrimidin-1-yl)methyl)-5-ethynyl-3-(4-(trifluoromethyl)benzyl)quinazolin-4(3H)-one] | 50 to 1000 nM | < 50 nM | 50 to 1000 nM | < 10 nM | – | – | – | – | − (− <30%) | − (− <30%)
13 | Nc1ncnc2c1c(-c1cccc(O)c1)nn2Cc1nc2cccc(C#CCCCC(=O)N3CCOCC3)c2c(=O)n1Cc1ccccc1Cl [Example 3, 2-((4-Amino-3-(3-hydroxyphenyl)-1H-pyrazolo[3,4-d]pyrimidin-1-yl)methyl)-3-(2-chlorobenzyl)-5-(6-morpholino-6-oxohex-1-yn-1-yl)quinazolin-4(3H)-one] | < 50 nM | < 50 nM | < 50 nM | < 10 nM | – | – | – | – | − (− <30%) | − (− <30%)
14 | COCC#Cc1cccc2nc(Cn3nc(-c4cccc(O)c4)c4c(N)ncnc43)n(Cc3ccc(Cl)cc3)c(=O)c12 [Example 26, 2-((4-Amino-3-(3-hydroxyphenyl)-1H-pyrazolo[3,4-d]pyrimidin-1-yl)methyl)-3-(4-chlorobenzyl)-5-(3-methoxyprop-1-ynyl)quinazolin-4(3H)-one] | 50 to 1000 nM | < 50 nM | 50 to 1000 nM | < 10 nM | – | – | – | – | − (− <30%) | − (− <30%)
15 | COCC#Cc1cccc2nc(Cn3nc(-c4ccc(O)cc4)c4c(N)ncnc43)n(Cc3cccc(OC)c3)c(=O)c12 [Example 27, 2-((4-Amino-3-(4-hydroxyphenyl)-1H-pyrazolo[3,4-d]pyrimidin-1-yl)methyl)-3-(3-methoxybenzyl)-5-(3-methoxyprop-1-ynyl)quinazolin-4(3H)-one] | 50 to 1000 nM | < 50 nM | 50 to 1000 nM | < 10 nM | – | – | – | – | − (− <30%) | − (− <30%)

Source: patent publication US9321773B2, “Compounds” (Respivert Ltd, priority 2009, dated 2016)
